In patent publication US20200129528A1, “METHODS FOR TREATING BLOOD PRESSURE CONDITIONS USING AMINOSTEROL COMPOSITIONS” (Enterin, Inc., priority 2018, published 2020):

Columns and labels:
[1] = system: mice with constipation due to overexpression of human αS; conditions: oral; cited from earlier work
[2] = cited from earlier work
[3] = mice, following systemic administration; into the duodenum through the biliary tract; cited from earlier work
[4] = system: IPANs (intrinsic primary afferent neuron); conditions: perfusion through lumen of isolated bowel segment; cited from earlier work
[5] = Pharmacokinetics of orally administered squalamine (ENT-01) in Stage 1; assay type: in vivo, human; conditions: PD patients, this study
Experimental: PK data were collected on the 10 patients enrolled in Stage 1 and 10 patients enrolled in Stage 2 to determine the extent of systemic absorption. In Stage 1, PK data were obtained at each visit, pre-medication, at 1, 2, 4, 8 and 24 hours (Table 10). In Stage 2, PK was measured on days 1 and 6 of the randomization period pre-medication, at 1, 2, 4 and 8 hours (Table 11).
The mean Cmax, Tmax and T1/2 and AUC of the squalamine ion following squalamine (ENT-01) oral dosing for Stage 1 patients. The PK analyses are only approximate, as the lower limit of the validated concentration range was 10 ng/ml; most of the measured concentrations fell below that value. The mean Cmax, Tmax and T1/2 and AUC of the squalamine ion following squalamine (ENT-01) oral dosing for Stage 2 patients. The PK analyses are only approximate, as the lower limit of the validated concentration range was 0.5 ng/ml.

CC(C)[C@@H](CC[C@@H](C)[C@H]1CC[C@H]2[C@@H]3[C@H](O)C[C@H]4C[C@@H](NCCCNCCCCN)CC[C@]4(C)[C@H]3CC[C@]12C)OS(=O)(=O)O [squalamine]
effect on gastro-intestinal motility [1]: stimulates gastro-intestinal motility | drug related GI toxicology ([2]; published clinical trials involving systemic administration): has not been reported | effect of intravenous administration on gastrointestinal motility ([2]; systemic blood levels one thousand-fold greater than after oral dosing, prior studies): not associated with increased gastrointestinal motility | route of clearance [3]: cleared by the liver and excreted as the intact molecule | effect on propulsive peristaltic contractions [4]: increasing the frequency of propulsive peristaltic contractions | systemic absorption following oral administration [5]: not significantly absorbed into the systemic circulation
